# Test results taken from the supplement of paper PMC10307832.
# Compound: O=C(/C=C/c1ccccc1)NC(NC(=S)Nc1cccc2cccnc12)C(Cl)(Cl)Cl [Salubrinal] + CC(=O)Nc1cccc(-n2c(=O)n(C3CC3)c(=O)c3c(Nc4ccc(I)cc4F)n(C)c(=O)c(C)c32)c1 [Trametinib] (partner 0.02 µM)
# Experiment: relative viability (nuclei count vs DMSO), 5 days (fraction); higher = more cells survive
# Settings: first compound 0.08 µM
# Procedure, shortened: (§1)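 Lung cancer cell lines in 1536-well plates got either a single drug or a fixed anchor-drug dose together with five library-drug doses (not always all listed) in √10 steps, by pin tool, on the day after seeding. Nuclei were counted after 5 days, and relative viability is the treated-to-vehicle ratio of nuclei counts. Values are medians of duplicate plates.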
row,Cell Line,relative viability
1,SK-MES-1,0.634
2,LU99A,0.589
3,BEN,1.07
4,HARA,0.715
5,NCI-H322M,0.542
6,LCLC-97TM1,0.186
7,NCI-H2009,0.345
8,A-427,0.782
9,NCI-H441,0.48
10,NCI-H661,0.781
11,NCI-H1734,0.704
12,NCI-H460,0.114
13,NCI-H2347,0.279
14,SK-LU-1,0.463
15,NCI-H1395,1.15
16,201T,0.741

row,Cell Line,relative viability
1,NCI-H1915,0.219
2,HCC-827,0.586
3,LXF-289,0.747
4,NCI-H23,0.437
5,NCI-H647,0.619
6,CAL-12T,0.378
7,NCI-H1651,0.848
8,EPLC-272H,0.305
9,NCI-H2228,0.457
10,NCI-H1792,0.533
11,NCI-H1355,0.445
12,NCI-H3122,0.259
13,NCI-H1437,0.563
14,NCI-H1755,0.847
15,NCI-H2023,0.601
16,HCC-15,0.444

# Same assay, conditions: first compound 0.253 µM
row,Cell Line,relative viability
1,SK-MES-1,0.526
2,LU99A,0.515
3,BEN,1.03
4,HARA,0.873
5,NCI-H322M,0.517
6,LCLC-97TM1,0.185
7,NCI-H2009,0.262
8,A-427,0.812
9,NCI-H441,0.415
10,NCI-H661,0.523
11,NCI-H1734,0.742
12,NCI-H460,0.24
13,NCI-H2347,0.258
14,SK-LU-1,0.468
15,NCI-H1395,1.15
16,201T,0.726
17,HCC-827,0.544
18,LXF-289,0.59
19,NCI-H23,0.423
20,NCI-H647,0.431
21,CAL-12T,0.406
22,NCI-H1651,0.833
23,EPLC-272H,0.298
24,NCI-H1355,0.452
25,NCI-H3122,0.239
26,NCI-H1437,0.601
27,NCI-H1755,0.803
28,NCI-H2023,0.617
29,HCC-15,0.36

# Same assay, conditions: first compound 0.8 µM
row,Cell Line,relative viability
1,SK-MES-1,0.512
2,LU99A,0.614
3,BEN,1.07
4,HARA,0.631
5,NCI-H322M,0.487
6,LCLC-97TM1,0.209
7,NCI-H2009,0.271
8,A-427,0.791
9,NCI-H441,0.48
10,NCI-H661,0.574
11,NCI-H1734,0.787
12,NCI-H460,0.125
13,NCI-H2347,0.395
14,SK-LU-1,0.561
15,NCI-H1395,1.18
16,201T,0.788

row,Cell Line,relative viability
1,NCI-H1915,0.583
2,HCC-827,0.515
3,LXF-289,0.7
4,NCI-H23,0.479
5,NCI-H647,0.524
6,CAL-12T,0.327
7,NCI-H1651,0.898
8,EPLC-272H,0.298
9,NCI-H2228,0.745
10,NCI-H1792,0.524
11,NCI-H1355,0.414
12,NCI-H3122,0.282
13,NCI-H1437,0.52
14,NCI-H1755,0.829
15,NCI-H2023,0.509
16,HCC-15,0.379

# Same assay, conditions: first compound 2.53 µM
row,Cell Line,relative viability
1,SK-MES-1,0.561
2,LU99A,0.548
3,BEN,1.14
4,HARA,0.621
5,NCI-H322M,0.565
6,LCLC-97TM1,0.17
7,NCI-H2009,0.287
8,A-427,0.689
9,NCI-H441,0.507
10,NCI-H661,0.577
11,NCI-H1734,0.656
12,NCI-H460,0.121
13,NCI-H2347,0.262
14,SK-LU-1,0.445
15,NCI-H1395,0.972
16,201T,0.728

row,Cell Line,relative viability
1,NCI-H1915,0.314
2,HCC-827,0.5
3,LXF-289,0.702
4,NCI-H23,0.334
5,NCI-H647,0.502
6,CAL-12T,0.244
7,NCI-H1651,0.829
8,EPLC-272H,0.314
9,NCI-H2228,0.385
10,NCI-H1792,0.374
11,NCI-H1355,0.433
12,NCI-H3122,0.226
13,NCI-H1437,0.545
14,NCI-H1755,0.765
15,NCI-H2023,0.447
16,HCC-15,0.378

# Same assay, conditions: first compound 8 µM
row,Cell Line,relative viability
1,SK-MES-1,0.525
2,LU99A,0.56
3,BEN,1.12
4,HARA,0.702
5,NCI-H322M,0.521
6,LCLC-97TM1,0.235
7,NCI-H2009,0.222
8,A-427,0.764
9,NCI-H441,0.462
10,NCI-H661,0.546
11,NCI-H1734,0.597
12,NCI-H460,0.126
13,NCI-H2347,0.294
14,SK-LU-1,0.447
15,NCI-H1395,1.02
16,201T,0.716

row,Cell Line,relative viability
1,NCI-H1915,0.311
2,HCC-827,0.548
3,LXF-289,0.681
4,NCI-H23,0.375
5,NCI-H647,0.433
6,CAL-12T,0.269
7,NCI-H1651,0.929
8,EPLC-272H,0.298
9,NCI-H2228,0.622
10,NCI-H1792,0.631
11,NCI-H1355,0.315
12,NCI-H3122,0.226
13,NCI-H1437,0.494
14,NCI-H1755,0.716
15,NCI-H2023,0.416
16,HCC-15,0.381

# Compound: O=C(/C=C/c1ccccc1)NC(NC(=S)Nc1cccc2cccnc12)C(Cl)(Cl)Cl [Salubrinal] + CCNC(=O)c1noc(-c2cc(C(C)C)c(O)cc2O)c1-c1ccc(CN2CCOCC2)cc1 [Luminespib] (partner 0.01 µM)
# Experiment: as above
# Settings: first compound 0.08 µM
# Procedure, shortened: as §1
row,Cell Line,relative viability
1,SK-MES-1,0.86
2,LU99A,0.234
3,BEN,0.53
4,HARA,0.848
5,NCI-H322M,1.06
6,LCLC-97TM1,0.894
7,NCI-H2009,1.09
8,A-427,1.04
9,NCI-H441,0.312
10,NCI-H661,0.912
11,NCI-H1734,0.174
12,NCI-H460,0.0402
13,NCI-H2347,0.786
14,SK-LU-1,0.182
15,NCI-H1395,0.761
16,201T,1.06

row,Cell Line,relative viability
1,NCI-H1915,0.918
2,HCC-827,0.694
3,LXF-289,0.74
4,NCI-H23,0.213
5,NCI-H647,0.208
6,CAL-12T,0.393
7,NCI-H1651,0.99
8,EPLC-272H,0.382
9,NCI-H2228,0.105
10,NCI-H1792,0.574
11,NCI-H1355,0.801
12,NCI-H3122,0.117
13,NCI-H1437,1.21
14,NCI-H1755,0.414
15,NCI-H2023,0.884
16,HCC-15,0.363

# Same assay, conditions: first compound 0.253 µM
row,Cell Line,relative viability
1,SK-MES-1,0.932
2,LU99A,0.264
3,BEN,0.323
4,HARA,0.688
5,NCI-H322M,0.794
6,LCLC-97TM1,0.798
7,NCI-H2009,0.966
8,A-427,0.696
9,NCI-H441,0.39
10,NCI-H661,0.763
11,NCI-H1734,0.175
12,NCI-H460,0.0238
13,NCI-H2347,0.63
14,SK-LU-1,0.201
15,NCI-H1395,0.701
16,201T,1.05

row,Cell Line,relative viability
1,NCI-H1915,0.559
2,HCC-827,0.411
3,LXF-289,0.595
4,NCI-H23,0.227
5,NCI-H647,0.243
6,CAL-12T,0.224
7,NCI-H1651,0.897
8,EPLC-272H,0.547
9,NCI-H2228,0.0961
10,NCI-H1355,0.744
11,NCI-H3122,0.112
12,NCI-H1437,0.999
13,NCI-H1755,0.637
14,NCI-H2023,0.703
15,HCC-15,0.294

# Same assay, conditions: first compound 0.8 µM
row,Cell Line,relative viability
1,SK-MES-1,0.861
2,LU99A,0.293
3,BEN,0.425
4,HARA,1.08
5,NCI-H322M,0.866
6,LCLC-97TM1,0.823
7,NCI-H2009,0.984
8,A-427,1.07
9,NCI-H441,0.393
10,NCI-H661,0.919
11,NCI-H1734,0.199
12,NCI-H460,0.031
13,NCI-H2347,0.381
14,SK-LU-1,0.206
15,NCI-H1395,0.774
16,201T,1.11

row,Cell Line,relative viability
1,NCI-H1915,1.26
2,HCC-827,0.425
3,LXF-289,0.569
4,NCI-H23,0.196
5,NCI-H647,0.27
6,CAL-12T,0.428
7,NCI-H1651,0.962
8,EPLC-272H,0.156
9,NCI-H2228,0.154
10,NCI-H1792,0.472
11,NCI-H1355,0.555
12,NCI-H3122,0.0978
13,NCI-H1437,1.19
14,NCI-H1755,0.707
15,NCI-H2023,0.874
16,HCC-15,0.245

# Same assay, conditions: first compound 2.53 µM
row,Cell Line,relative viability
1,SK-MES-1,0.613
2,LU99A,0.243
3,BEN,0.354
4,HARA,0.487
5,NCI-H322M,0.761
6,LCLC-97TM1,0.849
7,NCI-H2009,0.995
8,A-427,0.8
9,NCI-H441,0.338
10,NCI-H661,0.905
11,NCI-H1734,0.17
12,NCI-H460,0.0302
13,NCI-H2347,0.512
14,SK-LU-1,0.214
15,NCI-H1395,0.729
16,201T,1.09

row,Cell Line,relative viability
1,NCI-H1915,0.71
2,HCC-827,0.739
3,LXF-289,0.727
4,NCI-H23,0.217
5,NCI-H647,0.356
6,CAL-12T,0.449
7,NCI-H1651,0.743
8,EPLC-272H,0.275
9,NCI-H2228,0.108
10,NCI-H1792,0.624
11,NCI-H1355,0.72
12,NCI-H3122,0.118
13,NCI-H1437,1.08
14,NCI-H1755,0.293
15,NCI-H2023,0.517
16,HCC-15,0.468

# Same assay, conditions: first compound 8 µM
row,Cell Line,relative viability
1,SK-MES-1,0.364
2,LU99A,0.248
3,BEN,0.265
4,HARA,0.496
5,NCI-H322M,0.712
6,LCLC-97TM1,0.842
7,NCI-H2009,0.878
8,A-427,1.2
9,NCI-H441,0.385
10,NCI-H661,0.941
11,NCI-H1734,0.241
12,NCI-H460,0.0364
13,NCI-H2347,0.403
14,SK-LU-1,0.198
15,NCI-H1395,0.644
16,201T,1.07

row,Cell Line,relative viability
1,NCI-H1915,0.752
2,HCC-827,0.551
3,LXF-289,0.643
4,NCI-H23,0.216
5,NCI-H647,0.154
6,CAL-12T,0.518
7,NCI-H1651,0.827
8,EPLC-272H,0.164
9,NCI-H2228,0.174
10,NCI-H1792,0.587
11,NCI-H1355,0.705
12,NCI-H3122,0.1
13,NCI-H1437,1.12
14,NCI-H1755,0.378
15,NCI-H2023,0.884
16,HCC-15,0.206
